Converted amounts (≈) assume the structure as drawn. Read-outs that look alike come from different tables or passages of the source.
Columns and labels:
A. baumannii ATCC 15151 [1] = assay: ATP decrease (luciferase); assay type: cell-based; details: 1xMIC and 2xMIC; 25 minutes
MRSA ATCC BAA-44 = assay: MIC on MRSA ATCC BAA-44; assay type: cell-based, S. aureus; details: for MIC: Staphylococcus aureus
Procedure: MRSA BAA-44: MRSA ATCC BAA-44 was grown from a glycerol stock by placing a small volume of cells onto a Mueller-Hinton agar plate (MHA). The MHA plate was incubated overnight at 37° C. A single colony was used to inoculate Mueller-Hinton broth (MHB) to obtain a bacterial broth suspension. The MHB broth suspension was grown at 37° C. on a rotary shaking incubator (100 rpm) for 12 hours. The bacterial cell concentration was adjusted to ˜5×10^5 colony forming units per milliliter (CFU/mL) in MHB−/+10, 20, or 40% FBS using optical density (OD) at 595 nm. 500 μL aliquots of the adjusted bacterial cell suspension were placed into borosilicate glass tubes. The cell suspensions were treated with 100 μM compound of interest and serially diluted two-fold. The culture tubes were incubated for 18 hours at 37° C. Efficacy was either assessed visually or by adding 10% v/v MTT (5 mg/mL stock) after the 18 hour incubation period, where the cell suspensions were subsequently incubated for 10 minutes to allow the MTT reagent to carry out the colorimetric reaction.

[2] = tested on: RecA-GFP fusion protein in E. coli MG1655; assay: Inhibition of norfloxacin-triggered RecA-GFP induction in E. coli MG1655; assay type: cell-based
Procedure: An increase in DNA damage-induced RecA protein expression is required for identification and repair of DNA lesions. LexA-repressed transcription of a norfloxacin-triggered SOS response was measured by detecting an increase in RecA-GFP fusion protein fluorescence in an E. coli recombinant model. The compounds of the disclosure inhibited RecA-GFP induction and presumably, the concurrent SOS response. Inhibition of RecA-GFP expression correlated with an increase in cell death, most likely as a result of ALD activation. Sub-potent concentrations of Polymixin E were used to facilitate entry of the compounds into cells.
E. coli MG1655 was grown from a glycerol stock by placing a small volume of cells onto a MHA plate. The MHA plate was incubated overnight at 37° C. A single colony was subsequently used to inoculate MHB+10 μg/mL kanamycin to obtain a bacterial broth suspension. This was grown in at 37° C. on a rotary shaking incubator (100 rpm) for 12 hours. The bacterial cell concentration was adjusted to ˜5×10^5 colony forming units per milliliter (CFU/mL) in MHB using optical density at 595 nm. Treated cells with polymyxin E (PME) or norfloxacin (in μg/ml) at indicated concentrations for 30 minutes at 37° C. and then added a compound of the disclosure at indicated micromolar concentrations. Incubated for 3.5 hours at 37° C. Cell samples were read on the flow cytometer to detect (green fluorescent) RLU RecA expression and/or shutdown.
E. coli MG1655 was grown from a glycerol stock by placing a small volume of cells onto a MHA plate. The MHA plate was incubated overnight at 37° C. A single colony was subsequently used to inoculate MHB+10 μg/mL kanamycin to obtain a bacterial broth suspension. The MHB broth suspension was grown at 37° C. on a rotary shaking incubator (100 rpm) for 12 hours. The bacterial cell concentration was adjusted to ˜5×10^5 CFU/mL in MHB using OD at 595 nm.
Cells were treated with 0.03 μg/mL and 0.06 μg/mL norfloxacin for 30 minutes at 37° C. Then, 100 μM of the compounds were added. The cells were incubated for 3.5 hours at 37° C. 200 μL aliquots were removed and read by a flow cytometer to detect RecA production and/or shutdown. The cells were incubated for an additional 18 hours at 37° C. to assess overall toxicity.

A. baumannii ATCC 15151 [3] = assay: MIC on A. baumannii ATCC 15151; assay type: cell-based; details: Acinetobacter baumannii, ATCC15151; A. baumannii ATCC 15151 (heading of Example 9)
A. baumannii ATCC 15151 [4] = assay: microbe, parasite or virus in culture; assay type: cell-based; details: for change of MIC from Day 0 to Day 30 / development of resistance: 30 days; for MIC: Acinetobacter baumannii; for Evolution of resistance?: Table 7
Procedure: A. baumannii ATCC 15151 was grown from a glycerol stock by placing a small volume of cells onto a MHA plate. The MHA plate was incubated overnight at 37° C. A single colony was subsequently used to inoculate MHB to obtain a bacterial broth suspension. The MHB broth suspension was grown at 37° C. on a rotary shaking incubator (100 rpm) for 12 hours. The bacterial cell concentration was adjusted to ˜5×10^5 CFU/mL in MHB or MHB using OD at 595 nm. […] (PAO) and the negative control was non-treated cells. All treatments were performed in triplicate. The plate was incubated for 20 hours at 37° C. in a Tecan plate reader, where the cells were shaken every hour and an OD reading was taken at 600 nm. […] These cells were again plated in a 96-well plate and incubated as before. This was performed a total of 30 days.

A. baumannii ATCC 1515 = assay: Membrane depolarization detected by DiOC2(3); assay type: cell-based; details: 1xMIC; for cell membrane depolarization: 20 μM CCCP, 25 minutes; for cell membrane depolarization over time: 10, 20, 30, and 50 minutes
[5] = tested on: A. baumannii ATCC BAA-1797; assay: Colony counts of A. baumannii ATCC BAA-1797 treated with 4xMIC for 16 hours; assay type: cell-based; details: for kill of A. baumannii ATCC BAA-1797: 4xMIC (24 μM Compound 25, 24 μM Compound 26, 100 μM Compound 27, 48 μM Compound 14, 100 μM Compound 15)
[6] = tested on: drug-resistant A. baumannii strains obtained from the CDC and Prevention Antimicrobial Isolate Bank; assay: MIC on drug-resistant A. baumannii strains from the CDC Antimicrobial Isolate Bank; assay type: cell-based; details: Acinetobacter baumannii
A. baumannii = assay: Synergy with PME (Table 7); assay type: cell-based
[7] = 18 h, read-out: MIC in the presence of 40% FBS, MRSA ATCC BAA-44, 40% FBS
[8] = MRSA ATCC BAA-44, absence of serum, read-out: MIC in the absence of serum
[9] = MRSA ATCC BAA-44, serum not stated, read-out: MIC
[10] = ATCC15151, 0 h, read-out: Starting MIC Day 0, A. baumannii ATCC 15151, Day 0
[11] = ATCC15151, read-out: Final MIC Day 30, A. baumannii ATCC 15151, Day 30
[12] = 18 h, A. baumannii CDC AR033, 18 hours, read-out: MIC values for AR033
[13] = 18 h, A. baumannii CDC AR083, 18 hours, read-out: MIC values for AR083
[14] = no serum (note in the cell), read-out: MIC (μM) in MRSA BAA-44

Structure (SMILES) | ATP decrease (A. baumannii ATCC 15151 [1]) | MIC (MRSA ATCC BAA-44; [7]) | MIC (MRSA ATCC BAA-44; [8]) | MIC (MRSA ATCC BAA-44; [9]) | RecA attenuation with norflox on E. coli [2] | MIC (A. baumannii ATCC 15151 [3]) | change of MIC from Day 0 to Day 30 (A. baumannii ATCC 15151 [4]) | development of resistance (A. baumannii ATCC 15151 [4]) | MIC (A. baumannii ATCC 15151 [4]; [10]) | MIC (A. baumannii ATCC 15151 [4]; [11]) | Evolution of resistance? (A. baumannii ATCC 15151 [4]) | cell membrane depolarization (A. baumannii ATCC 1515) | Kill at 4X MIC at 16 hours [5] | kill of A. baumannii ATCC BAA-1797 [5] | MIC [6, 12] | Synergize with PME? (A. baumannii) | cell membrane depolarization over time (A. baumannii ATCC 1515) | MIC [6, 13] | MIC (MRSA ATCC BAA-44; [14]) | also measured
Nc1cccc2[nH]cc(/C=N/Nc3ccc(Cl)cc3)c12 [Compound 14, (E)-3-((2-(4-chlorophenyl)hydrazineylidene)methyl)-1H-indol-4-amine] | caused a decrease in ATP | 100 µM | 50 µM (≈ 14.2 µg/mL) | 50 to 100 µM (≈ 14.2 to 28.5 µg/mL) | Yes | 6 µM (≈ 1.71 µg/mL) | 8 fold | significant resistance | 12.5 µM (≈ 3.56 µg/mL) | ≥ 100 µM | Yes; >6-fold | depolarized the cell membrane | 5-logs | ~5 orders of magnitude | 25 µM (≈ 7.12 µg/mL) | Yes, at 4 μM | – | – | – | toxicity to MRSA BAA-44 (MRSA ATCC BAA-44; absence of serum): toxic; MIC ([6]; 18 h, read-out: MIC values for AR083): 12.5 µM (≈ 3.56 µg/mL)
Clc1ccc(N/N=C/c2c[nH]c3ccc(Br)cc23)cc1 [Compound 15, (E)-5-bromo-3-((2-(4-chlorophenyl)hydrazineylidene)methyl)-1H-indole] | caused a decrease in ATP | > 100 µM | 50 µM (≈ 17.4 µg/mL) | – | Yes | 12.5 µM (≈ 4.36 µg/mL) | – | – | – | – | Yes; >4-fold | – | 6-logs | ~5 orders of magnitude | 25 µM (≈ 8.72 µg/mL) | – | caused the most depolarization | 12.5 µM (≈ 4.36 µg/mL) | – | –
Brc1ccc(N/N=C/c2c[nH]c3cccc(OCc4ccccc4)c23)cc1.Cl [Compound 25, (E)-2-((4-(benzyloxy)-1H-indol-3-yl)methylene)-1-(4-bromophenyl)hydrazin-1-ium chloride] | caused a decrease in ATP | – | – | 25 µM | Yes | 3 µM | – | had not developed resistance | 6 µM | 6 µM | No | depolarized the cell membrane | 5-logs | ~5 orders of magnitude | 6 µM | Yes, at 1 μM | depolarized the membrane the least | < 3 µM | 50 µM | MIC ([6]; AR bank # 33, SAMN04014874, read-out: Compound 25 MIC): 6 µM; MIC ([6]; AR bank # 35, SAMN04014876, read-out: Compound 25 MIC): 12.5 µM; MIC ([6]; AR bank # 36, SAMN04014877, read-out: Compound 25 MIC): 12.5 µM; MIC ([6]; AR bank # 37, SAMN04014878, read-out: Compound 25 MIC): 6 µM; MIC ([6]; AR bank # 45, SAMN04014886, read-out: Compound 25 MIC): 6 µM; MIC ([6]; AR bank # 52, SAMN04014893, read-out: Compound 25 MIC): 6 µM; MIC ([6]; AR bank # 56, SAMN04014897, read-out: Compound 25 MIC): 3 µM; MIC ([6]; AR bank # 63, SAMN04014904, read-out: Compound 25 MIC): 3 µM; MIC ([6]; AR bank # 70, SAMN04014911, read-out: Compound 25 MIC): 3 µM; MIC ([6]; AR bank # 78, SAMN04014919, read-out: Compound 25 MIC): 6 µM; MIC ([6]; AR bank # 83, SAMN04014924, read-out: Compound 25 MIC): 3 µM; MIC ([6]; AR bank # 88, SAMN04014929, read-out: Compound 25 MIC): 6 µM; MIC ([6]; AR bank # 101, SAMN04014942, read-out: Compound 25 MIC): 6 µM; MIC ([6]; AR bank # 102, SAMN04014943, read-out: Compound 25 MIC): 6 µM
Cl.Clc1ccc(N/N=C/c2c[nH]c3cccc(OCc4ccccc4)c23)cc1 [Compound 26, (E)-2-((4-(benzyloxy)-1H-indol-3-yl)methylene)-1-(4-chlorophenyl)hydrazin-1-ium] | caused a decrease in ATP | – | – | 25 µM | Yes | 3 µM | 2 fold | slight resistance | 6 µM | 12 µM | Yes; 2-fold | depolarized the cell membrane | 5-logs | ~5 orders of magnitude | 6 µM | Yes, at 1 μM | – | 6 µM | 50 µM | –
Cl.Fc1ccc(N/N=C/c2c[nH]c3cccc(OCc4ccccc4)c23)cc1 [Compound 27, (E)-2-((4-(benzyloxy)-1H-indol-3-yl)methylene)-1-(4-fluorophenyl)hydrazin-1-ium] | caused a decrease in ATP | – | – | 100 µM | Yes | 12.5 µM | – | – | – | – | Yes; 4-fold | – | 5-logs | ~5 orders of magnitude | 25 µM | Yes, at 6 μM | caused the most depolarization | 12.5 µM | 100 µM | –
